# Experimental data reported in ChEMBL document CHEMBL1201862, “PubChem BioAssay data set” (2004).
# Active and inactive are the calls of the source.
# Columns and labels:
# [1] = inhibitors of firefly luciferase expression or activity, dose response, H4 neuroglioma cells, luminescence (AID 1990); type: functional, cell-based
# [2] = tested on: Streptococcus sp. 'group A'; test: growth inhibition of control SK(-) GAS strain, dose response, counter-screen for streptokinase expression inhibitor project, luminescence, kanamycin, BacTiterGlo, confirmation (AID 1900); type: functional, organism-based
# [3] = Luminescence Cell-Based Dose Response HTS to Identify Inhibitors of 5'UTR Stem-Loop Driven Prion Protein mRNA Translation in H4 Neuroglioblastoma Cells. [Related pubchem assays: 1827 (Project Summary), 1813 (Primary HTS)]; type: functional
# [4] = inhibitors of SNCA 5'UTR-driven reporter translation, confirmation, H4 neuroglioma cells, luminescence (AID 1988); type: functional, cell-based
# [5] = tested on: Streptococcus; test: Group A Streptococcus viability loss, dose response, counter-screen for streptokinase expression inhibitor project, luminescence, BacTiterGlo (AID 1915); type: functional, organism-based;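 further: potency for reduction of bacterial viability or growth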
# [6] = molecular target: Nonstructural protein 1 (Influenza A virus, UniProt Q194T2); type: functional, Influenza A virus (A/California/07/2009(H1N1))
# [7] = tested on: HEK293; test: inhibitors of LMP1-driven NF-kB reporter, dose response, cell-based, HEK293, luciferase, cherry-pick (AID 588343); type: functional; conditions: Homo sapiens
# [8] = inhibitors of HIV Env-driven cell fusion, dose response, cherry-pick (AID 652057); type: functional, cell-based
# [9] = CEM21 lymphoblast cell cytotoxicity, dose response, cytotoxicity control for viral fusion inhibitor project, CellTiter-Glo luminescence, cherry-picked (AID 652042); type: functional, cell-based;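 further: potency for signal decrease meaning cytotoxicity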
# [10] = off-target signal loss in HeLa-CEM21 co-culture – HeLa F-luc CTL cells, cherry-picked, counter-screen for HIV-1 Env fusion inhibitor project, dose response (AID 652040); type: functional, cell-based;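 further: potency for signal decrease marking cytotoxic or nonspecific inhibition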
# [11] = inhibitors of clade B AD8 Env fusion, dose response, cell-based, cherry-pick (AID 652062); type: functional;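 further: luciferase signal from cell-cell fusion driven by HIV-1 clade B AD8 Env; potency is for inhibitors of fusion seen as a drop in luminescence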
# [12] = LGR2 antagonists, dose response, cell-based, HEK293, CRE-luciferase reporter, cherry pick, set 2 (AID 743343); type: functional;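 further: transfected cells were stimulated with diluted bursicon conditioned medium after compound addition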
# [13] = MC4R antagonists, dose response, counter-screen for LGR2 antagonist project, cell-based, plate reader, cherry pick (AID 743444); type: functional;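 further: transfected HEK 293 cells stimulated with alpha-MSH peptide; potency of inhibitors of the alpha-MSH evoked signal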
# [14] = molecular target: Heat shock protein HSP 90-alpha (Homo sapiens, UniProt P07900); type: functional, organism-based
# [15] = tested on: HEK293; test: NOD1 signaling inhibitors, primary screen, cell-based, luminescence, uHTS (AID 1578); type: functional; conditions: Homo sapiens
# [16] = tested on: HEK293; test: cells; type: functional, cell-based; conditions: Homo sapiens
# [17] = molecular target: T1, Streptokinase A (Streptococcus pyogenes serotype M1, UniProt P10520); test: S. pyogenes streptokinase expression inhibitors, potency, dose response, plasminogen activation absorbance, OD405 (AID 1914); type: functional, Streptococcus pyogenes M1 GAS;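 further: secreted streptokinase activity via plasminogen activation per viability signal from cell pellet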
# T1 sequence (P10520 whole entry): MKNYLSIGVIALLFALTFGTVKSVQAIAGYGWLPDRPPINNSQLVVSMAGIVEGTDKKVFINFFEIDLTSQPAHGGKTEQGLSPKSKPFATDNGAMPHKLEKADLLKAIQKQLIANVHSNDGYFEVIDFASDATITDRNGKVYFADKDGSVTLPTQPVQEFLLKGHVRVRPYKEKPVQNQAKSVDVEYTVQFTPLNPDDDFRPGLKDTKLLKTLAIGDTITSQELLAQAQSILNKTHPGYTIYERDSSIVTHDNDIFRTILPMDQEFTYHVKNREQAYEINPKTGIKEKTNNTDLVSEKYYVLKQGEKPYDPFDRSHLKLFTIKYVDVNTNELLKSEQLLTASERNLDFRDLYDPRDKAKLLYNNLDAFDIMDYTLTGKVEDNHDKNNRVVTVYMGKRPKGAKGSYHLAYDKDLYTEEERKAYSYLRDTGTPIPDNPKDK
# [18] = tested on: HEK293; test: cells; type: functional, cell-based; conditions: Homo sapiens; remark: listed apart in the source
# [19] = tested on: HEK293; test: NOD2 signaling inhibitors in MDP-stimulated cells, cell-based, uHTS, luminescence (AID 2001); type: functional; conditions: Homo sapiens
# [20] = molecular target: SWI/SNF-related matrix-associated actin-dependent regulator of chromatin subfamily A member 2 (Homo sapiens, UniProt P51531); test: Luminescence-based cell-based high throughput dose response assay to identify activators of the function of SWI/SNF related, matrix associated, actin dependent regulator of chromatin, subfamily a, member 2 (SMARCA2, BRM).; type: functional
# [21] = Counterscreen for activators of the function of SWI/SNF related, matrix associated, actin dependent regulator of chromatin, subfamily a, member 2 (SMARCA2, BRM): Luminescence-based cell-based high throughput dose response assay to identify non-selective compounds using the VP16 reporter assay.; type: functional
# [22] = HEp-2 cell cytotoxicity, dose response, cytotoxicity control for RSV inhibitor project, HTS (AID 2410); type: functional; conditions: human respiratory syncytial virus
# [23] = molecular target: T2, Oxysterols receptor LXR-beta (Homo sapiens, UniProt P55055); type: functional, cell-based;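 further: agonist activity at LXR measured by a cell-based luminescence readout across a dose range, run as a counterscreen for daf-12 agonists; HEK293 cells with Gal4-LXR fusion and GAL4-driven luciferase reporter; potency for activation of Gal4-LXR reporter so compounds are agonists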
# T2 sequence (P55055 whole entry): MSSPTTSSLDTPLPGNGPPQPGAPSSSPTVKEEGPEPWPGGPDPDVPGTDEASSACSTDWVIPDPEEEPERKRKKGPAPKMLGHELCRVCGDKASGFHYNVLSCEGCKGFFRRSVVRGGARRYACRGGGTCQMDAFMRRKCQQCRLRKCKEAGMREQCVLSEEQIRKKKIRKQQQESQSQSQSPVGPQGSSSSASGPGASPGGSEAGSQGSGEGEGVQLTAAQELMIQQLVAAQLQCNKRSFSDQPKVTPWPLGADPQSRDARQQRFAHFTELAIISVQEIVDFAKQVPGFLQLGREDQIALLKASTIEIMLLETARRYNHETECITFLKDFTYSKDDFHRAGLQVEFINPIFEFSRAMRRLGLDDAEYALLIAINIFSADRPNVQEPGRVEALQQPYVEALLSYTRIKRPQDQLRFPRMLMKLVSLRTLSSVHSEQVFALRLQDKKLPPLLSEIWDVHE
# [24] = Luminescence Cell-Based Dose Retest to Confirm Inhibitors of Cancer Stem Cells. [Related pubchem assays (depositor defined):AID2717, AID2721]; type: functional; conditions: Homo sapiens
# [25] = ZM109 Env clade C HIV-1 fusion inhibitors, dose response, HeLa effector, CEM target cells, luciferase, cherry-pick (AID 652058); type: functional, cell-based
# [26] = molecular target: Luciferin 4-monooxygenase (Photinus pyralis, UniProt P08659); test: firefly luciferase enzyme inhibitors, dose response, biochemical, luminescence (AID 1891)
# [27] = Luminescence Cell-Based Dose Confirmation HTS to Identify Inhibitors of Platelet Dense Granule Release. [Related pubchem assays: 1663 (Primary HTS), 1678 (Summary of Project)]; type: functional
# [28] = molecular target: T3, Replicative DNA helicase DnaB (Mycobacterium tuberculosis, UniProt P9WMR3); test: DnaB intein splicing inhibitors, dose response, biochemical, cell-free fluorescence (AID 449749); type: functional
# T3 sequence (P9WMR3 whole entry): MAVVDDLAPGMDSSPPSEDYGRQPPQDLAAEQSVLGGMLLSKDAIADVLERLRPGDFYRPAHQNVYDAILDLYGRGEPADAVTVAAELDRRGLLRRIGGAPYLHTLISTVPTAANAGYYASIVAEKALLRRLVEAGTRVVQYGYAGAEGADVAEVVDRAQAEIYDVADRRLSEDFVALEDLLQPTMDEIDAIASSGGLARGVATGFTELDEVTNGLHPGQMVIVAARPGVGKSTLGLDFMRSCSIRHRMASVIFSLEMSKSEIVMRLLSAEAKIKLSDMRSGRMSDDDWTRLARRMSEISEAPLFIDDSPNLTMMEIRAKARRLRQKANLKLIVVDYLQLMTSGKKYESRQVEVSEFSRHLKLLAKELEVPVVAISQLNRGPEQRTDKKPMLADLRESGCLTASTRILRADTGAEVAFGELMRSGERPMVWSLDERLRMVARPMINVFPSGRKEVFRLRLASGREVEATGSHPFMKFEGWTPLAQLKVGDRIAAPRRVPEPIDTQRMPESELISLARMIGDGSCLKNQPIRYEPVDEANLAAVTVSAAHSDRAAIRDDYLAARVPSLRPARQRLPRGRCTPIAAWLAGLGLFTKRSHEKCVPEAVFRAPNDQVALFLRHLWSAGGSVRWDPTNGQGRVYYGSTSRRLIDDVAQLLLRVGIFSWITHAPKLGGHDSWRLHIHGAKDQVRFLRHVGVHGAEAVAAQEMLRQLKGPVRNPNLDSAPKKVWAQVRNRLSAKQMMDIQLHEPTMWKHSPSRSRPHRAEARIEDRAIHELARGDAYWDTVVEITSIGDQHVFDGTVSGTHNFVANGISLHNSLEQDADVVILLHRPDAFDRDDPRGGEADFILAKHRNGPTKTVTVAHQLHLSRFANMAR
# [29] = molecular target: T4, Protein RecA (Mycobacterium tuberculosis, UniProt P9WHJ3); test: Fluorescence Cell-Free Homogeneous Dose Retest to Identify Inhibitors of RecA-Intein Splicing Activity. [Related pubchem assays (depositor defined):AID2097, AID2223, AID489010, AID492950]; type: functional
# T4 sequence (P9WHJ3 whole entry): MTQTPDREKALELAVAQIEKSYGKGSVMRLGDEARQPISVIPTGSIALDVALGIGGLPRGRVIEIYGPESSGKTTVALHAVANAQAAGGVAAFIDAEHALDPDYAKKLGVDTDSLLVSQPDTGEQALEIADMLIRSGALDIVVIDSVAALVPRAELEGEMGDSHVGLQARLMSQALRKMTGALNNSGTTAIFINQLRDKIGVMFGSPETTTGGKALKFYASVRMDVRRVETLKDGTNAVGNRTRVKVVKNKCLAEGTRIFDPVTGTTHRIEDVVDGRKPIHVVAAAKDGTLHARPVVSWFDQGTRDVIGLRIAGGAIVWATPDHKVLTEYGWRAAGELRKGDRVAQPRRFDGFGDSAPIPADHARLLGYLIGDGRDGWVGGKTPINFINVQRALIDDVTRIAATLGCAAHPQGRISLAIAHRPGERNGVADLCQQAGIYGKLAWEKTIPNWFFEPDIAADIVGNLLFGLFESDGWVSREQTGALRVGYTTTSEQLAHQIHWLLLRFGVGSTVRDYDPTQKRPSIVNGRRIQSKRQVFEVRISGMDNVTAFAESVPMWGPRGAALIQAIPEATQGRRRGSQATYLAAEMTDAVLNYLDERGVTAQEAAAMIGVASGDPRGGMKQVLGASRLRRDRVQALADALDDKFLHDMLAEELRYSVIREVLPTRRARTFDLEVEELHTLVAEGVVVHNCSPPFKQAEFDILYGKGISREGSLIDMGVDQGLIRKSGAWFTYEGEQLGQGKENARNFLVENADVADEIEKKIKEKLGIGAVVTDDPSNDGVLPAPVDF
# Chain of SWI/SNF-related matrix-associated actin-dependent regulator of chromatin subfamily A member 2 (P51531 whole entry): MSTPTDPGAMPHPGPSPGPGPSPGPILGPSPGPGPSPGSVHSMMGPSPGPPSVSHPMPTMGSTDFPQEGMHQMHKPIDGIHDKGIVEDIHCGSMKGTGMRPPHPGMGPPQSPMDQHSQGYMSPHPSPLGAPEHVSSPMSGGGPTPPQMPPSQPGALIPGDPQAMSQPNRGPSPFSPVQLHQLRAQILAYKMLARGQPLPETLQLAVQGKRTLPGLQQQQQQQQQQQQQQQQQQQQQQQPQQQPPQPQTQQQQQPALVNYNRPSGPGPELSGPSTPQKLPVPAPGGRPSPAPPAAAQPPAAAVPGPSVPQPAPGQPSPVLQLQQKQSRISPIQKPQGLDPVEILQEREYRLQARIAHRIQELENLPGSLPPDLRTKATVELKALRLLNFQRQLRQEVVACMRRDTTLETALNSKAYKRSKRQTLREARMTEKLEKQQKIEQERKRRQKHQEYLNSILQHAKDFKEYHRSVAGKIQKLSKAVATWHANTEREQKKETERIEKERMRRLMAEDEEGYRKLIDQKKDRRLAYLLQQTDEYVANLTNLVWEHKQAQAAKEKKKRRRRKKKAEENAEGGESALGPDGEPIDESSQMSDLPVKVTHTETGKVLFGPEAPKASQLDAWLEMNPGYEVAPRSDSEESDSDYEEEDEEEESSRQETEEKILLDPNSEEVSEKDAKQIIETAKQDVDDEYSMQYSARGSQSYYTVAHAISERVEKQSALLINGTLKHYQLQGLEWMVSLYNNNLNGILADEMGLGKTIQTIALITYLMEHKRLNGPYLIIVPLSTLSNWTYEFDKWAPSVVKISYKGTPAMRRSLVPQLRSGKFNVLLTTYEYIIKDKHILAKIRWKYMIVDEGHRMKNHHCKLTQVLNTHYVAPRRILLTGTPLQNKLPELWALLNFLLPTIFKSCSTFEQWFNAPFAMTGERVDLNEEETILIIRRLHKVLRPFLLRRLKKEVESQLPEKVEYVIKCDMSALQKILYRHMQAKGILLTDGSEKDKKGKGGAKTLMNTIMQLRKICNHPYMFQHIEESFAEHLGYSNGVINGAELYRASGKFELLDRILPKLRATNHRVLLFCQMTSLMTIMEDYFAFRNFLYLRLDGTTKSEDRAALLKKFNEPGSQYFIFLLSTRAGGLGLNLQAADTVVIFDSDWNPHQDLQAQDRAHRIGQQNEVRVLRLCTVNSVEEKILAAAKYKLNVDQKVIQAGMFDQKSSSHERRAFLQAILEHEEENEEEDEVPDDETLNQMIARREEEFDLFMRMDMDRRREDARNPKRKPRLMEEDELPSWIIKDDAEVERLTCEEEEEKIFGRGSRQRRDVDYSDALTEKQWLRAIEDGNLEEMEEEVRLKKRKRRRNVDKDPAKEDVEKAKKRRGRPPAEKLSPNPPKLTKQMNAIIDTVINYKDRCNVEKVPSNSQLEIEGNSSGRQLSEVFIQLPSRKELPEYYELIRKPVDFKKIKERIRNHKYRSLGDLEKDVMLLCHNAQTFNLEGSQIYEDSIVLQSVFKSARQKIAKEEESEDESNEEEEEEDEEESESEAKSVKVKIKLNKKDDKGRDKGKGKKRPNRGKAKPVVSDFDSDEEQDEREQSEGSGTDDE
# Chain of Luciferin 4-monooxygenase (P08659 whole entry): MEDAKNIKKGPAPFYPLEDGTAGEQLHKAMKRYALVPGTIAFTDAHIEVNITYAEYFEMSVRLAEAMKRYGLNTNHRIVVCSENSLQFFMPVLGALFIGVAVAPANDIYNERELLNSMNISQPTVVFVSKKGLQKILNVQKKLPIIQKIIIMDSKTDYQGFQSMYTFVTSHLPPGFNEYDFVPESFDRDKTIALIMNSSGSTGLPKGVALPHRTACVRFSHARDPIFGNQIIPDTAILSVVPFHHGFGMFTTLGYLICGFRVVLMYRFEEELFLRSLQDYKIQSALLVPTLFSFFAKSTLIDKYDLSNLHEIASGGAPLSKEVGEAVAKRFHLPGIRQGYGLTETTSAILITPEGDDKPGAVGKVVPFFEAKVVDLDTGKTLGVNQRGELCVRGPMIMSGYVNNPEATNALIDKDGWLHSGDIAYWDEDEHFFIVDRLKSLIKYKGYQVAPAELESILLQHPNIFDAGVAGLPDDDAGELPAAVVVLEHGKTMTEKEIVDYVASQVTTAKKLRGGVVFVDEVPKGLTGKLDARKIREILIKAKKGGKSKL
# Chain of Nonstructural protein 1 (Q194T2 whole entry): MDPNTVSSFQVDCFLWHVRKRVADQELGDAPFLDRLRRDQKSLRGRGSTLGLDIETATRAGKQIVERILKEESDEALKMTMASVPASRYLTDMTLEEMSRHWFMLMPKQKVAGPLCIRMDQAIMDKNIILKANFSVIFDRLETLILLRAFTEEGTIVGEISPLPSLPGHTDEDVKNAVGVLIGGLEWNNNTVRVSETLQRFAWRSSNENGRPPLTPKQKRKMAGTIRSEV
structure (smiles),measurement,setting,value
CCOC(=O)c1sc(NC(=O)CNCc2ccccn2)c(C(=O)OCC)c1C,EC50,[1],11.7 µM (active)
same,EC50,[2],0.195 µM (active)
same,EC50,[3],9.71 µM (active)
same,EC50,[4],8.92 µM (active)
same,EC50,[5],5.05 µM (active)
same,IC50,[6],8.76 µM (active)
same,AC50,[7],2.35 µM (active)
c1ccc(Cc2cnc(N3CCN(Cc4csc5ccccc45)CC3)nc2)cc1,AC50,[8],2.86 µM (active)
same,AC50,[9],47.5 µM (active)
same,AC50,[10],65 µM (active)
same,AC50,[11],2.98 µM (active)
O=C(CN1C(=O)c2ccccc2S1(=O)=O)c1ccccc1F,AC50,[7],3.69 µM (active)
same,AC50,[12],2.28 µM (active)
same,AC50,[13],4.05 µM (active)
CCc1sc(C(=O)Nc2nc(-c3ccccn3)cs2)cc1C,AC50,[7],1.33 µM (active)
same,AC50,[14],7.91 µM (active)
O=C(NC(NC(=S)Nc1ccccc1Cl)C(Cl)(Cl)Cl)c1cccc(Cl)c1 (stereo not drawn),EC50,[15],> 20 µM (inactive)
same,EC50,[2],2.05 µM (active)
same,IC50,[16],3.72 µM (active)
same,EC50,[17],5.81 µM (active)
same,IC50,[18],11.5 µM (active)
same,IC50,[19],3.78 µM (active)
same,EC50,[5],3.79 µM (active)
COc1cccc(C(=O)COC(=O)c2cccs2)c1,EC50,[20],> 91.1 µM (inactive)
same,EC50,[21],> 91.1 µM (inactive)
CCN(CC)S(=O)(=O)c1cc(C(=O)OCC(=O)Nc2ccc(-c3nc4ccc(C)cc4s3)cc2)ccc1F,CC50,[22],11.4 µM (active)
same,AC50,[12],3.17 µM (active)
same,AC50,[13],3.11 µM (active)
same,EC50,[23],> 67.5 µM (inactive)
CN1CC(c2ccccc2)C2(SC(=S)N(Cc3ccco3)C2=O)C12C(=O)Nc1ccccc12 (stereo not drawn),AC50,[24],4.4 µM (active)
same,AC50,[8],17.6 µM (active)
same,AC50,[9],20.3 µM (active)
same,AC50,[25],18.4 µM (active)
CCc1ccc(C2CC(c3ccco3)=NN2S(C)(=O)=O)cc1 (stereo not drawn),EC50,[23],> 67.5 µM (inactive)
Cc1ccc(COC(=O)c2cc(S(=O)(=O)N3CCCCC3)ccc2N2CCOCC2)cc1,AC50,[8],19.8 µM (active)
same,AC50,[9],68.1 µM (active)
same,AC50,[10],> 70 µM (inactive)
same,AC50,[11],10.6 µM (active)
CC(C)c1c(CN(C)C(C)Cc2ccccc2)n(C)n(-c2ccccc2)c1=O (stereo not drawn) [FAMPROFAZONE],AC50,[7],292 µM (active)
Cc1nnc2c(N(C)S(=O)(=O)c3ccccc3)nc3ccccc3n12,EC50,[26],> 112 µM (not active)
same,EC50,[27],> 112 µM (not active)
same,EC50,[20],> 91.2 µM (inactive)
same,EC50,[21],> 91.2 µM (inactive)
Cc1cc(C)n2nc(CNS(=O)(=O)c3c(F)c(F)c(F)c(F)c3F)nc2n1,AC50,[28],38.5 µM (active)
same,EC50,[29],10.8 µM (active)
same,EC50,[20],> 91.2 µM (inactive)
same,EC50,[21],> 91.2 µM (inactive)
CC/C(=N\NC(=O)c1ccoc1C)c1ccc(C)o1,EC50,[23],> 67.5 µM (inactive)
